In patent US12390440B2, “Immunomodulating trifluoromethyl-aminal azalides” (Zoetis Services LLC, priority 2020, dated 2025):

Experiments:
[1] = tested on: IL-6; assay: Bovine whole blood assay, IL-6; type: cell-based; conditions: Bos taurus, fresh whole bovine blood, LPS 1 μg/mL
Experimental: (§1) (protected from light) for 30 minutes.

[2] = tested on: BRD pathogens, M. haemolytica and P. multocida; assay: MIC screening panel, BRD pathogens (CLSI broth micro-dilution); conditions: read-out: MIC flag (*) at Ex #
[3] = tested on: IL-1β; assay: Bovine whole blood assay, IL-1β; type: cell-based; conditions: overstimulation of IL-1β, perceived cellular toxicity concentration;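 also: compound concentration at which rising IL-1β release signals cytotoxicity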
Experimental: as §1

[4] = tested on: TNF-α; assay: Bovine whole blood assay, LPS-induced TNF-α; type: cell-based; conditions: Bos taurus, fresh whole bovine blood, LPS 1 μg/mL
Experimental: as §1

[5] = tested on: S. aureus; assay: MIC, S. aureus; conditions: Staphylococcus aureus
[6] = tested on: P. multocida; assay: MIC, P. multocida; conditions: Pasteurella multocida
[7] = tested on: M. haemolytica; assay: MIC, M. haemolytica; conditions: Mannheimia haemolytica
[8] = tested on: E. coli; assay: MIC, E. coli; conditions: Escherichia coli

Row | IC50 [1] [µM] | IC50 [4] [µM] | SMILES | MIC [2] [µg/mL] | IL-1β OS of LPS [3] [µM] | also measured
1 | 12 | 8 | CCCNC[C@]1(O)[C@H](C)O[C@@H](O[C@H]2[C@H](C)[C@@H](O[C@@H]3O[C@H](C)C[C@H]4[C@H]3OC(C(F)(F)F)N4Cc3ccccc3)[C@](C)(O)C[C@@H](C)CN[C@H](C)[C@@H](O)[C@](C)(O)[C@@H](CC)OC(=O)[C@@H]2C)C[C@@]1(C)OC (stereo partly drawn) [Example A-28, (2R,3S,4R,5R,8R,10R,11R,12S,13S,14R)-11-(((3aR,4S,6R,7aS)-1-benzyl-6-methyl-2-(trifluoromethyl)hexahydro-2H-pyrano[4,3-d]oxazol-4-yl)oxy)-2-ethyl-3,4,10-trihydroxy-13-(((2R,4R,5S,6S)-5-hydroxy-4-methoxy-4,6-dimethyl-5-((propylamino)methyl)tetrahydro-2H-pyran-2-yl)oxy)-3,5,8,10,12,14-hexamethyl-1-oxa-6-azacyclopentadecan-15-one] | < 64 | >250 | –
2 | 1 | 3 | CCCNC[C@]1(O)[C@H](C)O[C@@H](O[C@H]2[C@H](C)[C@@H](O[C@@H]3O[C@H](C)C[C@H]4[C@H]3OC(C(F)(F)F)N4CC(C)C)[C@](C)(O)C[C@@H](C)CN[C@H](C)[C@@H](O)[C@](C)(O)[C@@H](CC)OC(=O)[C@@H]2C)C[C@@]1(C)OC (stereo partly drawn) [Example A-27, (2R,3S,4R,5R,8R,10R,11R,12S,13S,14R)-2-ethyl-3,4,10-trihydroxy-13-(((2R,4R,5S,6S)-5-hydroxy-4-methoxy-4,6-dimethyl-5-((propylamino)methyl)tetrahydro-2H-pyran-2-yl)oxy)-11-(((3aR,4S,6R,7aS)-1-isobutyl-6-methyl-2-(trifluoromethyl)hexahydro-2H-pyrano[4,3-d]oxazol-4-yl)oxy)-3,5,8,10,12,14-hexamethyl-1-oxa-6-azacyclopentadecan-15-one] | < 64 | 2 | –
3 | 29 | 70 | CC[C@H]1OC(=O)[C@H](C)[C@@H](O[C@H]2C[C@@](C)(OC)[C@](O)(CNCCN3CCOC3=O)[C@H](C)O2)[C@H](C)[C@@H](O[C@@H]2O[C@H](C)C[C@H]3[C@H]2OC(C(F)(F)F)N3C)[C@](C)(O)C[C@@H](C)CN[C@H](C)[C@@H](O)[C@]1(C)O (stereo partly drawn) [Example A-24, (2R,3S,4R,5R,8R,10R,11R,12S,13S,14R)-11-(((3aR,4S,6R,7aS)-1,6-dimethyl-2-(trifluoromethyl)hexahydro-2H-pyrano[4,3-d]oxazol-4-yl)oxy)-2-ethyl-3,4,10-trihydroxy-13-(((2R,4R,5S,6S)-5-hydroxy-4-methoxy-4,6-dimethyl-5-(((2-(2-oxooxazolidin-3-yl)ethyl)amino)methyl)tetrahydro-2H-pyran-2-yl)oxy)-3,5,8,10,12,14-hexamethyl-1-oxa-6-azacyclopentadecan-15-one] | – | 40 | –
4 | – | 62 | CC[C@H]1OC(=O)[C@H](C)[C@@H](O[C@H]2C[C@@](C)(OC)[C@](O)(CNCCNC(C)=O)[C@H](C)O2)[C@H](C)[C@@H](O[C@@H]2O[C@H](C)C[C@H]3[C@H]2OC(C(F)(F)F)N3C)[C@](C)(O)C[C@@H](C)CN[C@H](C)[C@@H](O)[C@]1(C)O (stereo partly drawn) [Example A-22, N-(2-((((2S,3S,4R,6R)-6-(((2R,3S,4R,5R,8R,10R,11R,12S,13S,14R)-11-(((3aR,4S,6R,7aS)-1,6-dimethyl-2-(trifluoromethyl)hexahydro-2H-pyrano[4,3-d]oxazol-4-yl)oxy)-2-ethyl-3,4,10-trihydroxy-3,5,8,10,12,14-hexamethyl-15-oxo-1-oxa-6-azacyclopentadecan-13-yl)oxy)-3-hydroxy-4-methoxy-2,4-dimethyltetrahydro-2H-pyran-3-yl)methyl)amino)ethyl)acetamide] | < 64 | 40 | –

Continued, compound first:

Row | SMILES | IC50 [1] [µM] | IC50 [4] [µM] | MIC [2] [µg/mL] | IL-1β OS of LPS [3] [µM] | also measured
5 | CC[C@H]1OC(=O)[C@H](C)[C@@H](O[C@H]2C[C@@](C)(OC)[C@](O)(CNCCS(C)(=O)=O)[C@H](C)O2)[C@H](C)[C@@H](O[C@@H]2O[C@H](C)C[C@H]3[C@H]2OC(C(F)(F)F)N3C)[C@](C)(O)C[C@@H](C)CN[C@H](C)[C@@H](O)[C@]1(C)O (stereo partly drawn) [Example A-9, (2R,3S,4R,5R,8R,10R,11R,12S,13S,14R)-11-(((3aR,4S,6R,7aS)-1,6-dimethyl-2-(trifluoromethyl)hexahydro-2H-pyrano[4,3-d]oxazol-4-yl)oxy)-2-ethyl-3,4,10-trihydroxy-13-(((2R,4R,5S,6S)-5-hydroxy-4-methoxy-4,6-dimethyl-5-(((2-(methylsulfonyl)ethyl)amino)methyl)tetrahydro-2H-pyran-2-yl)oxy)-3,5,8,10,12,14-hexamethyl-1-oxa-6-azacyclopentadecan-15-one] | 70 | 28 | – | 40 | –
6 | CC[C@H]1OC(=O)[C@H](C)[C@@H](O[C@H]2C[C@@](C)(OC)[C@](O)(CNC(CO)CO)[C@H](C)O2)[C@H](C)[C@@H](O[C@@H]2O[C@H](C)C[C@H]3[C@H]2OC(C(F)(F)F)N3C)[C@](C)(O)C[C@@H](C)CN[C@H](C)[C@@H](O)[C@]1(C)O (stereo partly drawn) [Example A-4, (2R,3S,4R,5R,8R,10R,11R,12S,13S,14R)-13-(((2R,4R,5S,6S)-5-(((1,3-dihydroxypropan-2-yl)amino)methyl)-5-hydroxy-4-methoxy-4,6-dimethyltetrahydro-2H-pyran-2-yl)oxy)-11-(((3aR,4S,6R,7aS)-1,6-dimethyl-2-(trifluoromethyl)hexahydro-2H-pyrano[4,3-d]oxazol-4-yl)oxy)-2-ethyl-3,4,10-trihydroxy-3,5,8,10,12,14-hexamethyl-1-oxa-6-azacyclopentadecan-15-one] | 200 | 40 | – | 80 | –
7 | CC[C@H]1OC(=O)[C@H](C)[C@@H](O[C@H]2C[C@@](C)(OC)[C@](O)(CNC3CCC3)[C@H](C)O2)[C@H](C)[C@@H](O[C@@H]2O[C@H](C)C[C@H]3[C@H]2OC(C(F)(F)F)N3C)[C@](C)(O)C[C@@H](C)CN[C@H](C)[C@@H](O)[C@]1(C)O (stereo partly drawn) [Example A-7, (2R,3S,4R,5R,8R,10R,11R,12S,13S,14R)-13-(((2R,4R,5S,6S)-5-((cyclobutylamino)methyl)-5-hydroxy-4-methoxy-4,6-dimethyltetrahydro-2H-pyran-2-yl)oxy)-11-(((3aR,4S,6R,7aS)-1,6-dimethyl-2-(trifluoromethyl)hexahydro-2H-pyrano[4,3-d]oxazol-4-yl)oxy)-2-ethyl-3,4,10-trihydroxy-3,5,8,10,12,14-hexamethyl-1-oxa-6-azacyclopentadecan-15-one] | – | – | – | – | MIC [5]: > 64 µg/mL; MIC ([6]; P. multocida 43137): > 64 µg/mL; MIC ([6]; P. multocida 46572, murine efficacy challenge strain): > 64 µg/mL; MIC ([7]; M. haemolytica 12726): > 64 µg/mL; MIC ([7]; M. haemolytica 33396): > 64 µg/mL; MIC ([7]; M. haemolytica 46571, bovine efficacy challenge strain): > 64 µg/mL; MIC ([8]; E. coli 25922): > 64 µg/mL; MIC ([8]; E. coli W3110): > 64 µg/mL
8 | CC[C@H]1OC(=O)[C@H](C)[C@@H](O[C@H]2C[C@@](C)(OC)[C@](O)(CNCc3ncc[nH]3)[C@H](C)O2)[C@H](C)[C@@H](O[C@@H]2O[C@H](C)C[C@H]3[C@H]2OC(C(F)(F)F)N3C)[C@](C)(O)C[C@@H](C)CN[C@H](C)[C@@H](O)[C@]1(C)O (stereo partly drawn) [Example A-11, (2R,3S,4R,5R,8R,10R,11R,12S,13S,14R)-13-(((2R,4R,5S,6S)-5-((((1H-imidazol-2-yl)methyl)amino)methyl)-5-hydroxy-4-methoxy-4,6-dimethyltetrahydro-2H-pyran-2-yl)oxy)-11-(((3aR,4S,6R,7aS)-1,6-dimethyl-2-(trifluoromethyl)hexahydro-2H-pyrano[4,3-d]oxazol-4-yl)oxy)-2-ethyl-3,4,10-trihydroxy-3,5,8,10,12,14-hexamethyl-1-oxa-6-azacyclopentadecan-15-one] | – | 101 | < 64 | 40 | –
9 | CC[C@H]1OC(=O)[C@H](C)[C@@H](O[C@H]2C[C@@](C)(OC)[C@](O)(CNCCn3cncn3)[C@H](C)O2)[C@H](C)[C@@H](O[C@@H]2O[C@H](C)C[C@H]3[C@H]2OC(C(F)(F)F)N3C)[C@](C)(O)C[C@@H](C)CN[C@H](C)[C@@H](O)[C@]1(C)O (stereo partly drawn) [Example A-14, (2R,3S,4R,5R,8R,10R,11R,12S,13S,14R)-13-(((2R,4R,5S,6S)-5-(((2-(1H-1,2,4-triazol-1-yl)ethyl)amino)methyl)-5-hydroxy-4-methoxy-4,6-dimethyltetrahydro-2H-pyran-2-yl)oxy)-11-(((3aR,4S,6R,7aS)-1,6-dimethyl-2-(trifluoromethyl)hexahydro-2H-pyrano[4,3-d]oxazol-4-yl)oxy)-2-ethyl-3,4,10-trihydroxy-3,5,8,10,12,14-hexamethyl-1-oxa-6-azacyclopentadecan-15-one] | – | 30 | < 64 | 40 | –
10 | CC[C@H]1OC(=O)[C@H](C)[C@@H](O[C@H]2C[C@@](C)(OC)[C@](O)(CNCC3CCC(=O)N3)[C@H](C)O2)[C@H](C)[C@@H](O[C@@H]2O[C@H](C)C[C@H]3[C@H]2OC(C(F)(F)F)N3C)[C@](C)(O)C[C@@H](C)CN[C@H](C)[C@@H](O)[C@]1(C)O (stereo partly drawn) [Example A-21, (2R,3S,4R,5R,8R,10R,11R,12S,13S,14R)-11-(((3aR,4S,6R,7aS)-1,6-dimethyl-2-(trifluoromethyl)hexahydro-2H-pyrano[4,3-d]oxazol-4-yl)oxy)-2-ethyl-3,4,10-trihydroxy-13-(((2R,4R,5S,6S)-5-hydroxy-4-methoxy-4,6-dimethyl-5-((((5-oxopyrrolidin-2-yl)methyl)amino)methyl)tetrahydro-2H-pyran-2-yl)oxy)-3,5,8,10,12,14-hexamethyl-1-oxa-6-azacyclopentadecan-15-one] | 78 | 80 | – | 32 | –
